Where two headings read alike, the source gives them in different places.
What was measured:
SARS-CoV-2 = SARS-CoV-2 plaque formation in Vero E6 cells; format: cell-based; details: Severe acute respiratory syndrome coronavirus 2, Vero C1008, pre-incubated one hour before addition of virus, read-out: IC50, SARS-CoV-2 plaque formation / viral replication
[1] = parameters: species or system rats; details: rat, in vivo
Source text: (§1) In rats, the percentages of an administered oral dose excreted into the feces as dalcetrapib-ester and dalcetrapib thiol plus dalcetrapib thiol dimer are 41.1% and 17.8%, respectively. The corresponding values following oral administration in monkeys are 11.6% and 22.2%.

[2] = target: T1, cholesteryl ester transfer protein (Homo sapiens, UniProt P11597); details: cited from earlier work
T1 sequence (P11597 18-493): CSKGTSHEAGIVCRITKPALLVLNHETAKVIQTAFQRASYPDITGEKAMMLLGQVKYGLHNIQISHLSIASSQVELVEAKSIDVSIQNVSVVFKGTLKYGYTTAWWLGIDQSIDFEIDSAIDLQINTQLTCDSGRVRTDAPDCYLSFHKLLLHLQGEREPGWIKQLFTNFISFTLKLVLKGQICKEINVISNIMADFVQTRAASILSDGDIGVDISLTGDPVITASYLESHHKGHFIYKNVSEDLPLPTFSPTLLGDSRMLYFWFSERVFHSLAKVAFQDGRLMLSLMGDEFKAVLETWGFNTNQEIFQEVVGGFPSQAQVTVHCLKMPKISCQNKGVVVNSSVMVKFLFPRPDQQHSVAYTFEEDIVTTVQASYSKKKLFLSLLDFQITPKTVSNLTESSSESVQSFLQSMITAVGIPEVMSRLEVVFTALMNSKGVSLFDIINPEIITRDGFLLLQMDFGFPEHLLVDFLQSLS

[3] = parameters: species or system monkeys; details: monkey, in vivo
Source text: as §1

[4] = in vivo; cited from earlier work
[5] = parameters: species or system rodents; details: in vivo, po
Source text: as §1

Structure (SMILES)	IC50 (SARS-CoV-2)	percentage of administered oral dose excreted into the feces as dalcetrapib thiol plus dalcetrapib thiol dimer [1]	percentage of administered oral dose excreted into the feces as dalcetrapib-ester [1]	IC50 ([2]; pre-incubation 1 hour)	IC50 ([2]; pre-incubation 24 hours)	percentage of administered oral dose excreted into the feces as dalcetrapib thiol plus dalcetrapib thiol dimer [3]	percentage of administered oral dose excreted into the feces as dalcetrapib-ester [3]	safety issues from formation of covalent protein adducts [4]	tissue distribution [5]
CCC(CC)CC1(C(=O)Nc2ccccc2S)CCCCC1 [Dalcetrapib thiol]	~17.8 µM	–	–	–	–	–	–	–	–
CCC(CC)CC1(C(=O)Nc2ccccc2SC(=O)C(C)C)CCCCC1 [Dalcetrapib]	17.8 µM	17.8%	41.1%	1180 nM	45 nM	22.2%	11.6%	has not been observed	distributes in all tissues including the lungs and gastrointestinal tract

— patent US20210338626A1, “METHODS FOR TREATING OR PREVENTING A VIRAL INFECTION OR INHIBITING VIRAL REPLICATION” (Dalcor Pharma UK Ltd., Leatherhead, Zug Branch, priority 2020, published 2021)
